Results as given in patent US12139487B2, “Compounds and uses thereof” (Foghorn Therapeutics Inc., priority 2022, dated 2024).

Legend:
[1] = target: T1, BRM (Homo sapiens, UniProt P51531); assay: ATPase catalytic activity assay (ADP-Glo), BRM; type: biochemical; conditions: Table 10; for Ratio (BRG1 IC50 (μM) divided by BRM IC50 (μM)): ATPase assay, selectivity BRG1/BRM; for IC50: ATPase catalytic activity assay (ADP-Glo)
T1 construct: made in house; host or cells: High Five insect cells
In short: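 ADP-Glo luminescence measures ADP produced by BRM ATPase (30 nM) during 1 h at room temperature. ATP is 400 μM, with 20 nM salmon sperm DNA as cofactor. Buffer: 20 mM Tris pH 8, 20 mM MgCl2, 50 mM NaCl, 0.1% Tween-20, 1 mM DTT.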

[2] = target: T2, BRG-1 (Homo sapiens, UniProt P51532); assay: ATPase catalytic activity assay (ADP-Glo), BRG-1; type: biochemical; conditions: Table 10, read-out: BRG1 IC50
T2 construct: made in house; host or cells: High Five insect cells
T2 sequence (P51532 whole entry): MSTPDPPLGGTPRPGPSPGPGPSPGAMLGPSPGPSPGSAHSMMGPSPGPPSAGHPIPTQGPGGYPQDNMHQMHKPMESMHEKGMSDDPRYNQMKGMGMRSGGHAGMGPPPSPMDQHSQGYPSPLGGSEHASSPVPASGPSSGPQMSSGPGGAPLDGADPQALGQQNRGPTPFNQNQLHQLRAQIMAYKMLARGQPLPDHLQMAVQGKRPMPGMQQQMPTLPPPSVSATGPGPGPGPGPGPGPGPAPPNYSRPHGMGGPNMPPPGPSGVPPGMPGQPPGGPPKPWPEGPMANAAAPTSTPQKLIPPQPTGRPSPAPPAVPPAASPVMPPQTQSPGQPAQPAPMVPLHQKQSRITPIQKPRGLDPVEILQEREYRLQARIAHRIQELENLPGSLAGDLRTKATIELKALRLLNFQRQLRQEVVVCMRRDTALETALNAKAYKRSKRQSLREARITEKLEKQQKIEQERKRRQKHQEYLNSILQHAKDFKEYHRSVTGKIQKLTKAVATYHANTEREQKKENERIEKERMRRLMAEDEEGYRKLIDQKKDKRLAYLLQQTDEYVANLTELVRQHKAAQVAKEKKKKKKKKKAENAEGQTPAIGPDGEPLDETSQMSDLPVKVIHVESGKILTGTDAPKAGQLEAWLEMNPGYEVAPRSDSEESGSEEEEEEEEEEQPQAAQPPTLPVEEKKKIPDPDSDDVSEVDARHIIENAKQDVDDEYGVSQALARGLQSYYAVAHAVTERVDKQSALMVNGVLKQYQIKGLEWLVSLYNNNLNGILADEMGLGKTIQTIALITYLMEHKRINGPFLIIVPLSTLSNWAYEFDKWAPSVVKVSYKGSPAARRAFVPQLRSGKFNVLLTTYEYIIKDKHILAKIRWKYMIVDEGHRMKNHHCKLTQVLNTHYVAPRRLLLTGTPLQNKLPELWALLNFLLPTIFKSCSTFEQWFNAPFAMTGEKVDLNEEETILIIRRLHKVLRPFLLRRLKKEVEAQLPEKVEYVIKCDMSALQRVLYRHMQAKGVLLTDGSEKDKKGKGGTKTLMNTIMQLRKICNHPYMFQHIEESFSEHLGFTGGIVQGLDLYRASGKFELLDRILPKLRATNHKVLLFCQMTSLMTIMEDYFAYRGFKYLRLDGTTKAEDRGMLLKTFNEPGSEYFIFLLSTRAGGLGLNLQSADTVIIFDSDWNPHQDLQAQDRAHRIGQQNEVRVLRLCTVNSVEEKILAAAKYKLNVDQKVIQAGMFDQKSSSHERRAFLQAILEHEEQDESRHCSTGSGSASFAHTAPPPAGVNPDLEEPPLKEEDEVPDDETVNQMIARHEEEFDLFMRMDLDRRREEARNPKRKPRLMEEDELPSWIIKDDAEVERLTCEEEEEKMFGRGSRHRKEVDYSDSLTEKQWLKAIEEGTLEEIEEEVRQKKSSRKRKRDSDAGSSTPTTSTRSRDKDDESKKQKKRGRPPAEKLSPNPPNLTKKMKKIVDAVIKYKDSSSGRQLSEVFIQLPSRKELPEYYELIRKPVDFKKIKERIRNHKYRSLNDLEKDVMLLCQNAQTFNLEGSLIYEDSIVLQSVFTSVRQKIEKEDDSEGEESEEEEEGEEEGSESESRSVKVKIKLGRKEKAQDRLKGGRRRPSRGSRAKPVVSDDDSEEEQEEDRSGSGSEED
In short: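 ADP produced by BRG-1 was quantified by luciferase luminescence. A 60 min room-temperature ADP-to-ATP conversion followed a 40 min ATP-depletion step.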

T1 sequence (P51531 whole entry): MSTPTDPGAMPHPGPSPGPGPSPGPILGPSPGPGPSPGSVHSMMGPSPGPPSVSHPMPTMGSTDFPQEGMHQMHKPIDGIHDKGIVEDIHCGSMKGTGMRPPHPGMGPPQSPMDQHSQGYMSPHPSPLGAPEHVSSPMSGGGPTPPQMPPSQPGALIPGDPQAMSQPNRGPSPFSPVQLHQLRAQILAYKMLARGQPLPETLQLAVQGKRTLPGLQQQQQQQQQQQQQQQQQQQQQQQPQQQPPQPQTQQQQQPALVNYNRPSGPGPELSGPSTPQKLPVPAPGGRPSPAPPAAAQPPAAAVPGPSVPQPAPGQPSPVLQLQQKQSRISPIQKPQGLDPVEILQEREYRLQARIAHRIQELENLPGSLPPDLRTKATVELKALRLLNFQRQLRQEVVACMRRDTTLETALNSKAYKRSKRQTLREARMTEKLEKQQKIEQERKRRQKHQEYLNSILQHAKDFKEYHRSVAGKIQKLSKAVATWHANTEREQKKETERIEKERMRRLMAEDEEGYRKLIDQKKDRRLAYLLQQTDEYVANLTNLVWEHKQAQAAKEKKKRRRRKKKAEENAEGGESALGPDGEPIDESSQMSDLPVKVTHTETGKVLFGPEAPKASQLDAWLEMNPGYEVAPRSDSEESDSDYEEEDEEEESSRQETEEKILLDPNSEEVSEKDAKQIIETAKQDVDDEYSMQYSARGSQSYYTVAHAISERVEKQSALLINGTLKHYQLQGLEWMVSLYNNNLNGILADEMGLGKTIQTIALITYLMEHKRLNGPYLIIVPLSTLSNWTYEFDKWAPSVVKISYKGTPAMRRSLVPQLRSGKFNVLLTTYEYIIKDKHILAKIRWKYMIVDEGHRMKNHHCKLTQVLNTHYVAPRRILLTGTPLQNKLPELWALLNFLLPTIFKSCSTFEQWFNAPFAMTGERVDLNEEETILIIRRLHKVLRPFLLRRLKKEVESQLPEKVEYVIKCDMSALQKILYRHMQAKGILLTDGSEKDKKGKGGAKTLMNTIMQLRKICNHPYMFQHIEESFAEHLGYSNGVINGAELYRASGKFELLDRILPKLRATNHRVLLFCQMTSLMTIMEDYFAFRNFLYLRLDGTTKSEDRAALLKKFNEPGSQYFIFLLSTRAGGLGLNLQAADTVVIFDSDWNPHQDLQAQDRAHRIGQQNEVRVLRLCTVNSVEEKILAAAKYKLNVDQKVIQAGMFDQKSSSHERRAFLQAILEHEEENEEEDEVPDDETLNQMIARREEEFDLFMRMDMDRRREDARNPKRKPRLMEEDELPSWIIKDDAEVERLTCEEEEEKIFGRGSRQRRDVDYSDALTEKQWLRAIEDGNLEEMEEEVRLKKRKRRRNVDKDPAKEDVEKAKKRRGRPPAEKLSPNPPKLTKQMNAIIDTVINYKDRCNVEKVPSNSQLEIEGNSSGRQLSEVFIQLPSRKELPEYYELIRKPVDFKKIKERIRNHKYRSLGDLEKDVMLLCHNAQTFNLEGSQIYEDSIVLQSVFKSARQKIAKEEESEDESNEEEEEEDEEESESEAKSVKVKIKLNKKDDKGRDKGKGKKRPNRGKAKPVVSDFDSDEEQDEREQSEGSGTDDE

Structure (SMILES)	Ratio (BRG1 IC50 (μM) divided by BRM IC50 (μM)) [1]	IC50 [1]	IC50 [2]
Cc1cnc2c(c1)OCCN2c1ccc2cnc(CNC(=O)c3ccc4c(c3)S(=O)(=O)[C@@H](F)CCO4)cc2n1 [Compound 83]	19.36	3.1 nM	49.6 nM
O=C(NCc1cc2nc(-c3cccc([C@@H]4CC4(F)F)n3)ccc2cn1)c1cc(F)c2c(c1)S(=O)(=O)[C@@H](F)COC2 [Compound 253]	22.99	8 nM	171 nM
CO[C@H]1CN(c2cccc(-c3ccc4cnc(CNC(=O)c5cc(F)c6c(c5)S(=O)(=O)[C@@H](F)COC6)cc4n3)n2)C[C@@H]1F [Compound 54]	9.72	2.5 nM	27.9 nM
O=C(NCc1cc2nc(N3CCOc4cc(N5CC[C@H](F)[C@@H](F)C5)cnc43)ccc2cn1)c1cc(Cl)c2c(c1)S(=O)(=O)[C@@H](F)COC2 [Compound 112]	14.50	3.9 nM	57.2 nM
C[C@@H]1CN(c2cccc(-c3ccc4cnc(CNC(=O)c5ccc6c(c5)S(=O)(=O)[C@@H](F)CN(C)C6)cc4n3)n2)C[C@H](C)O1 (single isomer, unassigned) [Compound 317]	7.78	227 nM	1760 nM
O=C(NCc1cc2cc(-c3cccc(OC(F)F)n3)ccc2cn1)c1cc(Cl)c2c(c1)S(=O)(=O)[C@@H](F)COC2 [Compound 235, (2R)-6-chloro-N-[[6-[6-(difluoromethoxy)-2-pyridyl]-3-isoquinolyl]methyl]-2-fluoro-1,1-dioxo-3,5-dihydro-2H-4,1λ6-benzoxathiepine-8-carboxamide]	23.91	7.4 nM	163 nM
O=C(NCc1cc2cc(-c3cccc(OC(F)F)n3)ccc2nn1)c1cc(Cl)c2c(c1)S(=O)(=O)[C@@H](F)COC2 [Compound 196]	38.53	99.8 nM	3840 nM
C[C@@H]1CCN1c1cnc2c(c1)OCCN2c1ccc2cnc(CNC(=O)c3cc(Cl)c4c(c3)S(=O)(=O)[C@@H](F)CCO4)cc2n1 [Compound 165]	22.18	5.3 nM	143 nM
O=C(NCc1cc2nc(-c3cccc(OC(F)F)n3)ccc2cn1)c1ccc2c(c1)S(=O)(=O)[C@@H](F)CCOC2 [Compound 42]	13.35	2 nM	27 nM
C[C@H](NC(=O)c1cc(F)c2c(c1)S(=O)(=O)[C@@H](F)CCO2)c1cc2nc(N3CCOc4cc(C5CC5)cnc43)ccc2cn1 [Compound 240]	19.83	7.6 nM	185 nM
O=C(NCc1cc2nc(N3CCCc4c(OC5CC5)ncc(F)c43)ccc2cn1)c1cc(F)c2c(c1)S(=O)(=O)[C@@H](F)CCO2 [Compound 262]	19.49	8.5 nM	166 nM
O=C(NCc1cc2cc(-c3cccc(C4CC4)n3)ccc2cn1)c1cc(F)c2c(c1)S(=O)(=O)[C@@H](F)COC2 [Compound 118]	19.47	4 nM	63 nM
C[C@@H]1C[C@H]1c1ccc2c(n1)N(c1ccc3cnc(CNC(=O)c4cc(F)c5c(c4)S(=O)(=O)[C@@H](F)COC5)cc3n1)CCO2 [Compound 41]	20.00	2 nM	46.4 nM
O=C(NCc1cc2nc(N3CCOc4cc(N5C[C@@H](F)[C@H](F)C5)cnc43)ccc2cn1)c1cc(F)c2c(c1)S(=O)(=O)[C@@H](F)CCO2 [Compound 66]	24.64	2.6 nM	78.5 nM
COc1nc(C(F)F)ccc1-c1ccc2cnc(CNC(=O)c3cc(F)c4c(c3)S(=O)(=O)[C@@H](F)COC4)cc2n1 [Compound 53]	19.48	2.5 nM	54.3 nM

Other lines, results leading:

Ratio (BRG1 IC50 (μM) divided by BRM IC50 (μM)) [1]	IC50 [1]	IC50 [2]	Structure (SMILES)
16.49	4.9 nM	76.6 nM	CCOc1nc(C(F)F)ccc1-c1ccc2cnc(CNC(=O)c3cc(F)c4c(c3)S(=O)(=O)[C@@H](F)CCO4)cc2n1 [Compound 151]
23.61	8.9 nM	210 nM	COc1ccc(-c2ccc3cnc(CNC(=O)c4cc(F)c5c(c4)S(=O)(=O)[C@@H](F)CCO5)cc3n2)nc1[C@@H]1CC1(F)F [Compound 273]
13.78	4.9 nM	67.7 nM	COCCN(C)c1cnc2c(c1)CCCN2c1ccc2cnc(CNC(=O)c3cc(F)c4c(c3)S(=O)(=O)[C@@H](F)CCO4)cc2n1 [Compound 149]
15.21	5 nM	68 nM	CCOCc1cnc2c(c1)OCCN2c1ccc2cnc(CNC(=O)c3cc(F)c4c(c3)S(=O)(=O)[C@@H](F)CCO4)cc2n1 [Compound 154]
15.43	1.5 nM	24 nM	O=C(NCc1cc2nc(N3CCCc4c(OC5CC5)ccnc43)ccc2cn1)c1cc(F)c2c(c1)S(=O)(=O)[C@@H](F)CCO2 [Compound 18]
16.68	9.8 nM	174 nM	COCCOc1nccc2c1CCCN2c1ccc2cnc(CNC(=O)c3cc(F)c4c(c3)S(=O)(=O)[C@@H](F)CCO4)cc2n1 [Compound 295]
13.44	7 nM	102 nM	C[C@H]1C[C@@H]1c1cnc2c(c1)OCCN2c1ccc2cnc(CNC(=O)c3cc(F)c4c(c3)S(=O)(=O)[C@@H](F)CCO4)cc2n1 [Compound 223]
9.63	5.1 nM	49.3 nM	Cc1cc2c(-c3ccc4cnc(CNC(=O)c5cc(F)c6c(c5)S(=O)(=O)[C@@H](F)CCO6)cc4n3)cccc2n1C [Compound 161]
22.67	5.6 nM	113 nM	COc1nc(C(F)F)ccc1-c1ccc2cnc(CNC(=O)c3cc(F)c4c(c3)S(=O)(=O)[C@@H](F)CCO4)cc2n1 [Compound 177]
18.45	4.5 nM	94.2 nM	COc1cnc2c(c1)CCCN2c1ccc2cnc(CNC(=O)c3cc(F)c4c(c3)S(=O)(=O)[C@@H](F)CCO4)cc2n1 [Compound 133]
22.51	8.8 nM	199 nM	O=C(NCc1cc2cc(-c3cccc([C@@H]4CC4(F)F)n3)ccc2cn1)c1cc(F)c2c(c1)S(=O)(=O)[C@@H](F)CCO2 [Compound 268]
14.38	3.2 nM	46.7 nM	CCOc1cc(C(F)F)nc2c1OCCN2c1ccc2cnc(CNC(=O)c3cc(F)c4c(c3)S(=O)(=O)[C@@H](F)CCO4)cc2n1 [Compound 91]
21.42	4.9 nM	119 nM	COc1nc(C(C)(F)F)ccc1-c1ccc2cnc(CNC(=O)c3cc(F)c4c(c3)S(=O)(=O)[C@@H](F)CCO4)cc2n1 [Compound 150]
22.96	3.1 nM	68 nM	CCc1cnc2c(c1)OCCN2c1ccc2cnc(CNC(=O)c3cc(F)c4c(c3)S(=O)(=O)[C@@H](F)CCO4)cc2n1 [Compound 82]
